Data as given in US10815199B2, “NMDA antagonist prodrugs” (priority 2013, dated 2020).
Counter-ions that a name gives are not always drawn. Like-named read-outs stand apart in the source and are kept apart here.

How the values were obtained:
Caco-2 permeability = type: in vitro ADME; settings: human; Caco-2 cells
From the text: (§1) [drawing 48] is expected to occur via enzymatic hydrolysis at the proline C-terminus, releasing a dipeptide and (S)-1-phenyl-2-(pyridin-2-yl)ethanamine. The enzyme involved is expected to be dipeptidyl peptidase IV (DPPIV), which can be shown by inhibiting the conversion with a selective inhibitor of this enzyme. DPPIV is expected to be distributed throughout the human body. Human Intestinal Fluid (HIF), human liver S9 fraction and human whole blood have been used to examine the pharmacokinetic properties of prodrugs of (S)-1-phenyl-2-(pyridin-2-yl)ethanamine as well as the formation rate and formation extent of the (S)-1-phenyl-2-(pyridin-2-yl)ethanamine in different bodily compartments. Caco-2 cells have been used to evaluate the permeability and absorption potential of the prodrugs of (S)-1-phenyl-2-(pyridin-2-yl)ethanamine. The formation rate of (S)-1-phenyl-2-(pyridin-2-yl)ethanamine from different prodrugs of (S)-1-phenyl-2-(pyridin-2-yl)ethanamine differed in the tested assays, especially in human blood, as shown in Table 2.

[1] = Hum Liver Assay (human liver S9 fraction); type: in vitro ADME
From the text: This example illustrates that different prodrugs of (S)-1-phenyl-2-(pyridin-2-yl)ethanamine, wherein R1 is C1-6 alkylC(O)O(C1-6 alkoxy), may be used to achieve differing rates of conversion (i.e., slow or rapid) to (S)-1-phenyl-2-(pyridin-2-yl)ethanamine to ascertain a suitable PK profile. […] Further, this Example illustrates that there is no expected loss in oral exposure when a prodrug is converted to free base. Conversion of a prodrug wherein R1 is C1-6 alkylC(O)O(C1-6 alkoxy) to (S)-1-phenyl-2-(pyridin-2-yl)ethanamine is expected to occur via an initial enzymatic hydrolysis of a functional group, such as an ester, followed by a spontaneous conversion to (S)-1-phenyl-2-(pyridin-2-yl)ethanamine. Enzymes involved are expected to be several non-specific, high capacity esterases, which can be shown by inhibiting the conversion with a non-selective esterase inhibitor but not inhibiting the conversion using selective inhibitors. Such esterases are expected to be distributed throughout the human body. Human Intestinal Fluid (HIF), human liver S9 fraction and human whole blood have been used to examine the pharmacokinetic properties of the prodrugs of (S)-1-phenyl-2-(pyridin-2-yl)ethanamine as well as the formation rate and formation extent of the (S)-1-phenyl-2-(pyridin-2-yl)ethanamine in different bodily compartments. The formation rate of (S)-1-phenyl-2-(pyridin-2-yl)ethanamine from different prodrugs of (S)-1-phenyl-2-(pyridin-2-yl)ethanamine differs markedly in all tested assays, as shown in Table 1.
Human Intestinal Fluids (HIF), Human Liver and Human Blood assays used to generate the results shown in Table 1 have been described in Malmborg J & Ploeger B A, J Pharmacol Toxicol Methods (2013) May-June 67(3) 203-13, which is incorporated by reference herein.
as §1

Seizures in dog = Seizures in dog (NOEL/LOEL) after oral gavage; type: in vivo; settings: for LOEL Seizures in dog (Dose administered) / NOEL Seizures in dog (Dose administered): oral gavage, dose reflects free base concentration
Method: This example illustrates that when doses of prodrug of (S)-1-phenyl-2-(pyridin-2-yl)ethanamine dihydrochloride (Example 5) and (S)-1-phenyl-2-(pyridin-2-yl)ethanamine dihydrochloride were administered to dogs, the risk of seizures, as represented by NOEL and LOEL, was less with the prodrug.
(S)-1-phenyl-2-(pyridin-2-yl)ethanamine dihydrochloride and vehicle were administered once per day via oral gavage (water). Formulations were prepared twice, once weekly. Dosing formulations were stored and refrigerated (2-8° C.) in amber glass containers until required for dosing. A range of concentrations of (S)-1-phenyl-2-(pyridin-2-yl)ethanamine dihydrochloride in vehicle were prepared in order to keep the dose volume for all doses (1 mL/kg). Individual doses were based on the most recent body weights of dogs used in the study.
A prodrug of (S)-1-phenyl-2-(pyridin-2-yl)ethanamine as fumarate salt (example 5) and vehicle were administered once per day for 14 days via oral gavage at approximately the same time each day (±1 hour), (vehicle is 0.3 M gluconic acid pH 3.0). A range of concentrations of prodrug of (S)-1-phenyl-2-(pyridin-2-yl)ethanamine as fumarate salt in vehicle were prepared (for example 3, 10 and 30 mg/mL of prodrug of (S)-1-phenyl-2-(pyridin-2-yl)ethanamine) in order to keep the dose volume for all doses (2 mL/kg). The dosing formulations were warmed to room temperature by stirring for at least 30 minutes prior to dosing and continuously throughout the administration procedure. Individual doses were based on the most recent body weights of dogs used in the study.
Table 4 Compound 1 is (S)-1-phenyl-2-(pyridin-2-yl)ethanamine. […] In each case the highest blood concentration (Cmax) of free base (S)-1-phenyl-2-(pyridin-2-yl)ethanamine is measured. In the first case, the free base (S)-1-phenyl-2-(pyridin-2-yl)ethanamine is generated directly from Compound 1, administered as the dihydrochloride salt. In the second case, the free base (S)-1-phenyl-2-(pyridin-2-yl)ethanamine is generated via in vivo conversion from a prodrug of Compound 1, administered as the fumarate salt. The NOEL for seizures was higher when the prodrug of (S)-1-phenyl-2-(pyridin-2-yl)ethanamine as fumarate salt was administered compared to when (S)-1-phenyl-2-(pyridin-2-yl)ethanamine as dihydrochloride salt was administered.

[2] = Conversion of prodrug at increasing initial concentrations in human intestinal fluid (LC-UV); type: in vitro ADME; settings: initial concentrations 33, 100, 300 and 600 μmol/L, FIG. 1a and 1b
Method: FIGS. 1a and 1b illustrates the conversion of prodrug of (S)-1-phenyl-2-(pyridin-2-yl)ethanamine (Example 5) to (S)-1-phenyl-2-(pyridin-2-yl)ethanamine during an incubation period in human intestinal fluid. In particular, FIG. 1a illustrates prodrug of (S)-1-phenyl-2-(pyridin-2-yl)ethanamine (Example 5) concentration (initial concentrations of 30, 100, 300 and 600 as it transforms to (S)-1-phenyl-2-(pyridin-2-yl)ethanamine, during an incubation period in human intestinal fluid. FIG. 1b illustrates (S)-1-phenyl-2-(pyridin-2-yl)ethanamine concentration, as it converts from prodrug of (S)-1-phenyl-2-(pyridin-2-yl)ethanamine (Example 5, initial concentrations of 30, 100, 300 and 600 μM), during an incubation period in human intestinal fluid. […]
Stock solutions of prodrug of (S)-1-phenyl-2-(pyridin-2-yl)ethanamine (0.33, 1, 3 and 6 mmol/L) were prepared by adding a volume (8.25, 25, 75 and 150 μL) of 20 mmol/L solution of prodrug of (S)-1-phenyl-2-(pyridin-2-yl)ethanamine dissolved in DMSO, to FaSSIF-v2 (491.75, 475, 425 and 350 μL). […] The conversion rate from prodrug to (S)-1-phenyl-2-(pyridin-2-yl)ethanamine was determined by fitting the measured prodrug and (S)-1-phenyl-2-(pyridin-2-yl)ethanamine concentrations versus time.

[3] = human, s9, Table 2, read-out: Prodrug Clint Hum Liver S9
[4] = human, s9, Table 1, read-out: Prodrug Clint Hum Liver S9

| SMILES | Papp (Caco-2 permeability) [×10⁻⁶ cm/s] | microsomal CLint [1, 3] [µL/min/mg] | microsomal CLint [1, 4] [µL/min/mg] | also measured |
| --- | --- | --- | --- | --- |
| N[C@@H](Cc1c[nH]cn1)C(=O)N1CCC[C@H]1C(=O)N[C@@H](Cc1ccccn1)c1ccccc1 [Example 7, (S)-1-((S)-2-Amino-3-(1H-imidazol-4-yl)propanoyl)-N—((S)-1-phenyl-2-(pyridin-2-yl)ethyl)pyrrolidine-2-carboxamide] | 1.6 | 33 |  |  |
| CC(OC(=O)N[C@@H](Cc1ccccn1)c1ccccc1)OC(=O)C(C)C (single isomer, unassigned) [Example 4 Diastereomer 1] |  |  | 1200 |  |
| CC(C)C(=O)OCOC(=O)N[C@@H](Cc1ccccn1)c1ccccc1 [Example 1, (S)-(1-Phenyl-2-(pyridin-2-yl)ethylcarbamoyloxy)methyl isobutyrate] |  |  | 2300 |  |
| Cl.Cl.N[C@@H](Cc1ccccn1)c1ccccc1 [Compound 1, as di-HCl salt, (S)-1-phenyl-2-(pyridin-2-yl)ethanamine dihydrochloride, reference compound] |  |  |  | LOEL Seizures in dog (Dose administered) (Seizures in dog): (20 mg/kg); NOEL Seizures in dog (Dose administered) (Seizures in dog): (10 mg/kg) |
| NCCCC[C@H](N)C(=O)N1CCC[C@H]1C(=O)N[C@@H](Cc1ccccn1)c1ccccc1 [Example 6, (S)-1-((S)-2,6-Diaminohexanoyl)-N—((S)-1-phenyl-2-(pyridin-2-yl)ethyl)pyrrolidine-2-carboxamide] | 0.07 | 73 |  |  |
| N[C@@H](Cc1ccc(O)cc1)C(=O)N1CCC[C@H]1C(=O)N[C@@H](Cc1ccccn1)c1ccccc1 [Example 8, 2-((S)-2-((S)-1-((S)-2-Amino-3-(4-hydroxyphenyl)propanoyl)pyrrolidine-2-carboxamido)-2-phenylethyl)pyridine dihydrochloride] | 3.2 |  |  | microsomal CLint ([1]; Table 2, read-out: Prodrug Clint Hum Liver S9): 51 µL/min/mg |
| CC(C)[C@H](N)C(=O)N1CCC[C@H]1C(=O)N[C@@H](Cc1ccccn1)c1ccccc1 [Prodrug of Compound 1, as fumarate salt, (S)-1-((S)-2-Amino-3-methylbutanoyl)-N-((S)-1-phenyl-2-(pyridin-2-yl)ethyl)pyrrolidine-2-carboxamide fumerate] |  |  |  | LOEL Seizures in dog (Dose administered) (Seizures in dog): (60 mg/kg); NOEL Seizures in dog (Dose administered) (Seizures in dog): (20 mg/kg) |
| CC(C)C(=O)OC(OC(=O)N[C@@H](Cc1ccccn1)c1ccccc1)C(C)C (single isomer, unassigned) [Example 2 Diastereomer 2] |  |  | 1900 |  |
| N=C(N)NCCC[C@H](N)C(=O)N1CCC[C@H]1C(=O)N[C@@H](Cc1ccccn1)c1ccccc1 [Example 12, 2-[(2S)-2-{[(2S)-1-[(2S)-2-Azaniumyl-5-{[azaniumyl(iminiumyl)methyl]amino}pentanoyl]-pyrrolidin-2-yl]formamido}-2-phenylethyl]pyridin-1-ium tetrachloride] | 8.6 | 69 |  |  |
| CC(C)[C@H](N)C(=O)N1CCC[C@H]1C(=O)N[C@@H](Cc1ccccn1)c1ccccc1 [Example 5, (S)-1-((S)-2-Amino-3-methylbutanoyl)-N—((S)-1-phenyl-2-(pyridin-2-yl)ethyl)pyrrolidine-2-carboxamide] | 1.4 | 120 |  | increase in concentration of (S)-1-phenyl-2-(pyridin-2-yl)ethanamine with increasing doses of prodrug [2]: less than proportional increases; risk of seizures, as represented by NOEL and LOEL (Seizures in dog; dogs, prodrug versus (S)-1-phenyl-2-(pyridin-2-yl)ethanamine dihydrochloride): less |
